Measured values: US20230192617A1, “AZABICYCLIC(THIO)AMIDES AS FUNGICIDAL COMPOUNDS” (Bayer CropScience Aktiengesellschaft, priority 2020, published 2023)

Experiments:
Botrytis cinerea [1] = assay: In vivo preventive test on Botrytis cinerea (grey mould); settings: 500 ppm of active ingredient, preventive spray on gherkin or cabbage, evaluated 4 to 5 days after inoculation, read-out: efficacy
Summary of the method: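 Young gherkin or cabbage plants were sprayed with compound in DMSO/acetone/Tween 80 diluted in water, then inoculated 24 hours later with a B. cinerea spore suspension. Incubation lasted 4 to 5 days: gherkin at 17° C., 90% relative humidity; cabbage at 20° C., 100% relative humidity.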

Alternaria brassicae = assay: In vivo preventive test on Alternaria brassicae (leaf spot on radish or cabbage); settings: 500 ppm of active ingredient, preventive spray on radish or cabbage, evaluated 3 to 4 days after inoculation, read-out: efficacy
Summary of the method: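 Young radish or cabbage plants were sprayed with compound dissolved in DMSO/acetone/Tween 80 and diluted in water; controls received solvent only. Inoculation by spraying A. brassicae spore suspension 24 h later, then 3–4 days at 20 °C and 100% relative humidity.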

[2] = system: Colletotrichum lindemuthianum; assay: B-8. Colletotrichum lindemuthianum in vitro cell test; format: cell-based; settings: 144 h, 20 ppm of active ingredient, 6 days incubation, liquid culture, absorbance, read-out: efficacy (inhibition of fungal growth)
Summary of the method: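 Spore suspension of C. lindemuthianum in liquid medium exposed to DMSO-solubilized compounds (final DMSO ≤1%) for 6 days. Mycelial growth read by absorbance, with inhibition calculated relative to compound-free control wells.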

Pyrenophora teres [3] = assay: In vivo preventive test on Pyrenophora teres (net blotch on barley); settings: 240 h, 500 ppm of active ingredient, preventive spray on barley, evaluated 10 days after inoculation, read-out: efficacy
Description: B-3. In Vivo Preventive Test on Pyrenophora Teres (Net Blotch on Barley) [table] The active ingredients were made soluble and homogenized in a mixture of Dimethyl sulfoxide/Acetone/Tween® 80 and then diluted in water to the desired concentration. The young plants of barley were treated by spraying the active ingredient prepared as described above. Control plants were treated only with an aqueous solution of Acetone/Dimethyl sulfoxide/Tween® 80. After 24 hours, the plants were contaminated by spraying the leaves with an aqueous suspension of Pyrenophora teres spores. The contaminated barley plants were incubated for 48 hours at 20° C. and at 100% relative humidity and then for 8 days at 20° C. and at 70-80% relative humidity.

Alternaria alternata = Alternaria alternata in vitro cell test; format: cell-based; settings: 120 h, 20 ppm of active ingredient, liquid culture, 5 days incubation, spectrometric measurement of mycelium growth, read-out: efficacy (inhibition of fungal growth)
Summary of the method: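 Liquid culture assay in which A. alternata spores in medium received DMSO-solubilized compound (final DMSO ≤1%). After 5 days, mycelium growth was measured spectrometrically. Inhibition was calculated against fungicide-free control wells.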

Sphaerotheca fuliginea = assay: In vivo preventive test on Sphaerotheca fuliginea (powdery mildew on cucurbits); settings: Podosphaera fuliginea, 192 h; 500 ppm of active ingredient; preventive spray on gherkin; evaluated 8 days after inoculation; read-out: efficacy
Summary of the method: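 Young gherkin plants were sprayed with compound in DMSO/acetone/Tween 80 diluted in water. They were inoculated 24 h later with a spore suspension of Sphaerotheca fuliginea. Plants were then kept for 8 days at 20 °C and 70–80% relative humidity.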

[4] = Measurement of Log P values by HPLC on reversed phase columns (EEC directive 79/831 Annex V.A8); format: physicochemical; settings: reversed phase HPLC column, method [a]: LC-UV, acidic range, 0.1% formic acid in water and acetonitrile as eluent
Summary of the method: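 Reversed-phase HPLC with UV detection per EEC 79/831 Annex V.A8, linear 10–95% acetonitrile gradient. Aqueous eluent: 0.1% formic acid (acidic), 0.001 M ammonium acetate (neutral), or 0.1% phosphoric acid (acidic); multiple values in one method joined by "+".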

[5] = system: Colletotrichum lindemuthianum; assay: In vivo preventive test on Colletotrichum lindemuthianum (leaf spot on bean); settings: 168 h, 500 ppm of active ingredient, preventive spray on bean, evaluated 7 days after inoculation, read-out: efficacy
Description: B-5. In Vivo Preventive Test on Colletotrichum lindemuthianum (Leaf Spot on Bean) [table] The active ingredients were made soluble and homogenized in a mixture of Dimethyl sulfoxide/Acetone/Tween® 80 and then diluted in water to the desired concentration. The young plants of bean were treated by spraying the active ingredient prepared as described above. Control plants were treated only with an aqueous solution of Acetone/Dimethyl sulfoxide/Tween® 80. After 24 hours, the plants were contaminated by spraying the leaves with an aqueous suspension of Colletotrichum lindemuthianum spores. The contaminated bean plants were incubated for 24 hours at 20° C. and at 100% relative humidity and then for 6 days at 20° C. and at 90% relative humidity.

Pyrenophora teres [6] = assay: B-10. Pyrenophora teres in vitro cell test; format: cell-based; settings: 144 h, 20 ppm of active ingredient, 6 days incubation, liquid culture, absorbance, read-out: efficacy (inhibition of fungal growth)
Summary of the method: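 Liquid-culture assay on a P. teres spore suspension with compounds added to the medium from DMSO solutions, final DMSO ≤1%. Mycelium growth read spectrometrically after 6 days. Inhibition calculated from absorbance against untreated control wells.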

Botrytis cinerea [7] = assay: B-11. Botrytis cinerea in vitro cell test; format: cell-based; settings: 144 h, 20 ppm of active ingredient, 6 days incubation, liquid culture, absorbance, read-out: efficacy (inhibition of fungal growth)
Summary of the method: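 B. cinerea spores were grown in liquid culture with compound (DMSO ≤1% final). Mycelium growth was measured spectrometrically after 6 days, with inhibition taken as absorbance relative to untreated control wells.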

| Compound | pest or weed control at 500 ppm (Botrytis cinerea [1]) [%] | pest or weed control at 500 ppm (Alternaria brassicae) [%] | inhibition at 20 ppm [2] [%] | pest or weed control at 500 ppm (Pyrenophora teres [3]) [%] | inhibition at 20 ppm (Alternaria alternata) [%] | pest or weed control at 500 ppm (Sphaerotheca fuliginea) [%] | chromatographic logP [4] | pest or weed control at 500 ppm [5] [%] | inhibition at 20 ppm (Pyrenophora teres [6]) [%] | inhibition at 20 ppm (Botrytis cinerea [7]) [%] |
| --- | --- | --- | --- | --- | --- | --- | --- | --- | --- | --- |
| Cc1ccc(C(F)(F)CNC(=O)c2c(Oc3cccc(C4CC4)c3F)nnc3c2N[C@@H](O)CC3)c(C)c1 (racemic) [I-116] | 90 to 100 | 90 to 100 | 90 to 100 | 80 to 89 | 90 to 100 | 90 to 100 | 3.74 | 90 to 100 |  |  |
| Cc1cccc(Oc2nnc3ccccc3c2C(=O)NCC(F)(F)c2ccc(C)cc2C)c1 [I-017] | 90 to 100 | 90 to 100 | 90 to 100 | 70 to 79 | 90 to 100 | 90 to 100 | 4.11 |  |  |  |
| Cc1ccc(C(F)(F)CNC(=O)c2c(Oc3cccc(C4CC4)c3)nnc3ccccc23)c(C)c1 [I-218] | 90 to 100 | 90 to 100 | 90 to 100 | 80 to 89 | 90 to 100 |  | 4.45 | 90 to 100 | 90 to 100 | 90 to 100 |
| O=C(NC[C@H](F)c1ccc(Cl)cc1Cl)c1c(Oc2cccc(C(F)(F)F)c2)cnc2c1OCCO2 (racemic) [I-108] | 90 to 100 | 90 to 100 | 90 to 100 | 90 to 100 | 90 to 100 | 90 to 100 | 3.77 | 90 to 100 |  |  |
| O=C(NC[C@H](F)c1ccc(Br)cc1Cl)c1c(Oc2cccc(C(F)F)c2)nnc2ccccc12 (racemic) [I-029] | 90 to 100 | 90 to 100 | 90 to 100 | 70 to 79 | 90 to 100 | 70 to 79 | 4.01 | 90 to 100 |  |  |
| Cc1ccc(C(F)(F)CNC(=O)c2c(Oc3cccc(C(F)(F)F)c3)cnc3ccoc23)c(C)c1 [I-066, N-[2-(2,4-dimethylphenyl)-2,2-difluoro-ethyl]-6-[3-(trifluoro-methyl)phenoxy]furo[3,2-b]pyridine-7-carboxamide] | 90 to 100 | 90 to 100 | 90 to 100 | 70 to 79 | 90 to 100 | 90 to 100 | 4.14 |  | 90 to 100 | 90 to 100 |
| O=C(NCC(F)(F)c1ccc(Br)cc1Cl)c1c(Oc2cccc(C(F)(F)F)c2)cnc2c1OCCO2 [I-107, N-[2-(4-bromo-2-chloro-phenyl)-2,2-difluoro-ethyl]-7-[3-(tri-fluoromethyl)phenoxy]-2,3-dihydro-[1,4]dioxino[2,3-b]pyridine-8-carboxamide] | 90 to 100 | 90 to 100 | 90 to 100 | 80 to 89 | 90 to 100 | 90 to 100 | 3.94 | 90 to 100 |  |  |
| Cc1ccc(CCNC(=O)c2c(Oc3cccc(C(F)(F)F)c3)nnc3ccsc23)c(C)c1 [I-231] |  | 90 to 100 |  | 70 to 79 |  | 90 to 100 | 4.77 |  |  | 80 to 89 |
